Data taken from patent publication US10106540B2, “HDAC6 inhibitors and their uses” (Universität Regensburg, priority 2014, dated 2018).

How the values were obtained:
[1] = system: 42 solid tumor cell lines; test: In vitro activity against solid tumor cell lines, mean of all lines; assay type: cell-based; details: average IC50 value from all 42 measurements
nuclear proteins = test: Nuclear extracts versus cytoplasm after MARB1 stimulation, Western blot; assay type: cell-based
Description: Nuclear extracts were generated and compared to the cytoplasm by western blotting. 6 Mio cells were seeded on a 10 cm dish and incubated 2 h in the medium for adaption. SAHA and […] are pan-HDACi. HSP90 was used as a loading control for the cytoplasm. n=2
SDS-PAGE and Western Blot Analysis Method b
Western Blot analysis method b was used for the blots illustrated in FIGS. 6 to 9 and 11: Equal amounts of proteins were separated with a sodium dodecyl sulfate-polyacrylamide gel electrophoresis (SDS-PAGE) using an electrophoresis buffer by Laemmli with 1% SDS. The proteins were transferred to a nitrocellulose membrane by western blotting using a wet blot chamber. The blots were incubated with the primary antibody, after blocking the membrane for 1 h in 5% non-fat dry milk in tris-buffered saline (TBS) containing 0.05% Tween-20. Fluorescence coupled secondary antibodies (LI-COR) were used and the signal was measured on the Odyssey to detect the proteins.
The cells for nuclear extracts were harvested on ice after stimulation and washed with cold PBS. The pellet was resuspended in lysis buffer A (10 mM HEPES pH 7.9, 1.5 mM MgCl2, 10 mM KCl, 1 mM DTT and protease and phosphatase inhibitor) and incubated for 15 min on ice followed by addition of NP-40 to a final concentration of 1%. […] The protein level was assessed by Bradford assay (Goder et al. 2015).

HEL leukemic cells = test: Western blot analysis in HEL leukemic cells (JAK2 V617F); assay type: cell-based, human; details: 24 h, Western blot
Description: Human leukemia cell line HEL with JAK2 V617F mutation (DSMZ Accession No: ACC-11).
(§1) The assay is carried out as described in Buchwald et al. 2010 and Buchwald et al. 2013. Briefly, cells were collected and lysed in NET-N buffer (150 mM NaCl, 1 mM EDTA, 50 mM Tris-HCl (pH 7.8), 0.5% Nonidet P-40 (NP-40), 1 mM phenylmethylsulfonyl fluoride, 0.5 mg/ml leupeptin and 0.5 mg/ml pepstatin) followed by mild sonification on ice. Protein lysate ([…]) was boiled in Laemmli buffer and separated on SDS-polyacrylamide gel electrophoresis for western blotting with specific antibodies. All lysates were assessed by Bradford assay for protein concentrations.

HCT-116 cells = test: Western blot analysis in HCT-116 colon cancer cells; assay type: cell-based, human
Description: FIG. 5. Various cancer cells were treated for 24 h as shown and tested by Western blot analysis. […] Human colon cancer cell lines RKO (ATCC Accession No: CRL-2577) and HCT-116 (DSMZ Accession No: ACC-581). Western Blot Analysis a […] Protein lysate ([…]) was boiled in Laemmli buffer and separated on SDS-polyacrylamide gel electrophoresis for western blotting with specific antibodies. All lysates were assessed by Bradford assay for protein concentrations.

UXF 1138 = test: In vitro activity against solid tumor cell lines (FACS analysis method a); assay type: cell-based; details: Homo sapiens, Uterus
Description: Human uterus cancer cell line UXF 1138 (Oncotest GmbH, Freiburg, Germany)
(§2) The assay is carried out as described in Pietschmann et al., 2012 and Brandl et al. 2012. Briefly, 10^5 cells were fixed in 1 ml 70% EtOH with 0.05% Tween-20 overnight at 4° C. The following day, cells were washed with 3 ml 38 mM sodium citrate, pH 7.4, and incubated for 20 min at 37° C. in 0.5 ml 38 mM sodium citrate, pH 7.4, supplemented with 50 μg/ml propidium iodide and 10 μg/ml RNase-A. DNA contents of the cells were measured by fluorescence-activated cell sorter (FACS). This method allows detection of the apoptotic subG1-fraction, which has a DNA content below 2n due to apoptotic cleavage of DNA. Equally, the cell cycle profile can be assessed with this method.
(§3) The novel HDAC6 inhibitors were tested in a panel of tumor cell lines for cytostatic/toxic activities (see Table 2).

RKO cells = test: Western blot analysis in RKO colorectal cancer cells; assay type: cell-based, human
Description: FIG. 5. Various cancer cells were treated for 24 h as shown and tested by Western blot analysis.
(D) Inhibition of HDAC6 protects it from degradation by the addition of a pro-apoptotic agent (staurosporine, ST).
The total amount of vinculin serves as a loading control; Proof of tubulin acetylation serves as proof of the treatment accuracy. The loss of the caspase-3 corresponds to the induction of apoptosis (programmed cell death).
Human colon cancer cell lines RKO (ATCC Accession No: CRL-2577) and HCT-116 (DSMZ Accession No: ACC-581).
as §1

PRXF DU-145 = test: In vitro activity against solid tumor cell lines (FACS analysis method a); assay type: cell-based; details: Homo sapiens, Prostate
Description: (§4) Human prostate cancer cell lines PRXF DU-145, PRXF LNCaP, PRXF PC-3M (Oncotest GmbH, Freiburg, Germany)
as §2, §3

PRXF PC-3M = test: as above; assay type: cell-based; details: Homo sapiens, Prostate
Description: as §4, §2, §3

PRXF LNCaP = test: as above; assay type: cell-based; details: Homo sapiens, Prostate
Description: as §4, §2, §3

BV-173 cells = test: Flow cytometric analysis of BV-173 cells, combination with imatinib; assay type: cell-based, human; details: BV-173, 1 μM MARB1 or 2 μM MARB2 combined with 0.2 or 0.5 μM imatinib, 48 h
Description: Flow cytometric analysis of the induction of (A) apoptotic DNA fragmentation and (B) Cell cycle analysis of BV 173 cells. The cells were kept as control cells (Ctl), treated with 1 μM or 2 μM MARB1 MARB2 and 0.2 or 0.5 μM imatinib for 48 h. The data was received by two independent experiments. The individual compounds show only slight effects in the used concentrations; whereas their combination can effectively kill leukemic cells. (C) Western blot analysis on data from the BCR-ABL, acetylated tubulin and α-sliced PARP1; the total amount of tubulin-α serves as a loading control. BV-173 cells were treated for 24 h with 1 μM, or 2 μM MARB1 or MARB2.
Human leukemia cell lines BV 173 and K562 with BCR-ABL mutation (Leibniz Institute DSMZ—German Collection of Microorganisms and Cell Cultures, DSMZ Accession Nos: ACC-20 and ACC-10).
as §2, with “This method allows detection of the apoptotic subG1-fraction, which has a DNA content below 2n due to apoptotic cleavage of DNA.” left out

Q: For `CN1C(=O)C2CN(Cc3c2c2ccccc2n3Cc2ccc(C(=O)NO)cc2)C1=O` (stereo not drawn) [MARB1, N-Hydroxy-4-((4-methyl-3,5-dioxo-3,4,5,6-tetrahydro-2,6-methano[1,3]diazocino[5,6-b]indol-11(1H)-yl)methyl)benzamide], which IC50 [1] is on record?
A: 5.03 µM

Q: What about the “effects on nuclear proteins” value (nuclear proteins) of the same compound?
A: no detectable effects

Q: What about the “concentration with about the same potency in hyperacetylation of tubulin-α” value (HEL leukemic cells) of the same compound?
A: ~1 µM

Q: What about the “tubulin acetylation and degradation” value (HCT-116 cells; 1 μM, 24 h (FIG. 5B)) of the same compound?
A: triggers the hyperacetylation of tubulin without causing its degradation

Q: What about the “tubulin acetylation and degradation” value (HCT-116 cells; HCT-116 cells, 24 h) of the same compound?
A: starts the hyperacetylation of tubulin in colon carcinoma cells (RKO and HCT-116 cells) without destroying it

Q: What about the IC50 (UXF 1138) of the same compound?
A: 1580 nM

Q: What about the hyperacetylation of tubulin (RKO cells; 0.5 μM, 24 h) of the same compound?
A: sufficient to induce hyperacetylation of tubulin

Q: What about the “HDAC6 loss in staurosporin (ST)-treated cells” value (RKO cells; with staurosporine) of the same compound?
A: protects ST-treated RKO cells

Q: What about the IC50 (PRXF DU-145) of the same compound?
A: 2340 nM

Q: What about the IC50 (PRXF PC-3M) of the same compound?
A: 5.14 µM

Q: What about the IC50 (PRXF LNCaP) of the same compound?
A: 1620 nM

Q: And the “apoptotic and necrotic sub-G1 populations” value (BV-173 cells)?
A: significantly increases
